# Source: patent US20260191974A1, “B7-H3 TARGETING LIGANDS AND METHODS OF USE” (The University of North Carolina at Chapel Hill, priority 2022, published 2026)
# Values joined by “and” are separate entries in the source; they are usually repeats but may differ in a detail not shown here. Equal entries are not always repeated. *1 amine or outer side, *2 acyl side, *3 side chain or, on linkers, in order; H or OH if unused. Where a SMILES comes first, the peptide text is derived from it. Bridges are numbered along the chain shown (N, C = ends). Where no end group is shown, it is not given here. [ ]: non-standard residue; d: D form. ξ: configuration not given here. mXylylene = c1cc(C[*:1])cc(C[*:2])c1; Nle = CCCC[C@H](N)C(=O)O; ξP = O=C(O)C1CCCN1
# Assays:
# [1] = tested on: Raji cells expressing murine B7-H3; assay: Live imaging with GFP-tagged endosome/lysosome reporters in Raji cells expressing murine B7-H3; type: cell-based; details: JP3-PEG-TAMRA or JP5-PEG-TAMRA at 250 nM for 5 hours
# Experimental: FIGS. 22A-22B. Live imaging of an example targeting ligand uptake in Raji cells expressing murine B7-H3 pre-incubated with GFP-tagged reporters for early (Rab5a) and late (Rab7a) endosomes or early (Lamp1) lysosomes. Cells were treated with JP3-PEG-TAMRA (FIG. 22A) or JP5-PEG-TAMRA (FIG. 22B) at 250 nM for 5 hours, cytospun with live cell imaging subsequently performed.
# Live imaging of an example targeting ligand uptake in Raji cells expressing murine B7-H3 pre-incubated with GFP-tagged reporters for early (Rab5a) and late (Rab7a) endosomes or early (Lamp1) lysosomes is shown in FIG. 22A (JP3) and FIG. 22B (JP5).
# B7-H3 [2] = molecular target: T1, B7-H3 (Homo sapiens, UniProt Q5ZPR3); assay: mRNA display validation assay of NGS hits against B7-H3; type: binding; details: naïve NNK10 library as a control
# T1 sequence (Q5ZPR3 29-534): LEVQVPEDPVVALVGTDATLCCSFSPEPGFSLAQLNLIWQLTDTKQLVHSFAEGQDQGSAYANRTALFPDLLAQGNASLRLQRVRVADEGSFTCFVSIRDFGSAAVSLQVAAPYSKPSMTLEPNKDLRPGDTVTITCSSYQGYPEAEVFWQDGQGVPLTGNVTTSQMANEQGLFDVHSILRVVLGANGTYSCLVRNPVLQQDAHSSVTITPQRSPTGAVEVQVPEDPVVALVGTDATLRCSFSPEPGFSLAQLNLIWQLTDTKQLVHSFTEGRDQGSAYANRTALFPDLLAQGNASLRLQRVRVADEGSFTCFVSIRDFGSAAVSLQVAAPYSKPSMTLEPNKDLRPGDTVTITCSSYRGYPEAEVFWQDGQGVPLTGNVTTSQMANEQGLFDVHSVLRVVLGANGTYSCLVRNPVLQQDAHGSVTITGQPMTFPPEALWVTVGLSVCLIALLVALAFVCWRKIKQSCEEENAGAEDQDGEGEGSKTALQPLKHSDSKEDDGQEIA
# From the text: FIGS. 11A-11F. Dibromoxylene (DBX) mediated B7-H3 selection. (FIG. 11A) Selection schematic details the selection process for identifying binders against B7-H3 using DBX. (FIG. 11B) qPCR results of the DBX mediated B7-H3 selection. (FIG. 11C) Mean frequency vs. number of sequences. (FIG. 11D) NGS data of the selection hits from Selections (rounds 3 and 5), named sequences indicate sequences purchased for binding validation. (FIG. 11E) Validation assay identified hits from NGS data run through the selection process (outlined in (FIG. 11A)), with the naïve NNK10 library as a control.
# A background screen against selection components is carried out prior to the selection against B7-H3 to remove non-specific binders. FIG. 11D includes sequences from NGS data with named sequences evaluated for binding validation. […] Exemplary DBX hit structures are shown in FIG. 12, with points of cargo attachment designated with arrows.
# [3] = Serum stability in 50% fetal bovine serum; type: in vitro ADME; details: 37° C., read-out: peptide remaining intact
# Experimental: Serum stability of JP3 and JP5 was assessed. Peptides (JP3 or JP5) were incubated in 50% fetal bovine serum (diluted in media) at 37° C. and samples were taken over a time course spanning 24 h. Samples were mixed with cold methanol to crash out serum protein, and the supernatant containing the peptides was collected and run on MS to determine the amount of peptide present at each time point.
# human and murine B7-H3 [4] = assay: Ka (M^-1s^-1)
# Experimental: (§1) Table printed on a drawing sheet, FIG. 24C
# Head of the field: Ka (M^-1s^-1)
# (§2) The patent's description of the figure: FIGS. 24A-24C. SPR analysis of the selected peptides B1.1 and JP5. The B1.1 variant was analyzed at analyte concentrations of 7.5, 15, 30, 60, and 120 nM (FIG. 24A) and the JP5 variant was analyzed at analyte concentrations of 22.2, 66.6, 200, 600 and 1800 nM (FIG. 24B). (FIG. 24C) Binding kinetics of each peptide.
# (§3) First copying reader's note: Bracket lines drawn over and under the sequences mark ring closures that the text cells cannot show: C-C above and Q-K below in oxidized B1.1, Q-K below only in reduced B1.1, and C-C above in JP5.
# (§4) Where the first naming reader finds the target: passage: Surface plasmon resonance was used to evaluate binding of B1.1 and JP5 to both human and murine B7-H3 (FIGS. 24A-24C)
# biotinylated B7-H3 = molecular target: T2, biotinylated B7-H3 (Homo sapiens, UniProt Q5ZPR3); assay: Surface Plasmon Resonance (SPR) analysis against biotinylated B7-H3; details: biotinylated B7-H3, 25° C., 1:1 binding kinetics model
# T2 sequence (Q5ZPR3 29-534): T1 sequence (Q5ZPR3 29-534)
# From the text: (§5) FIGS. 4A-4G. (FIG. 4A) Selection schematic detailing the selection process for identifying binders against B7-H3. (FIG. 4B) qPCR results of the mTG mediated B7-H3 selection. (FIG. 4C) B7-H3 selection results and complete NGS analysis of B7-H3 hits. (FIG. 4D) NGS data of the selection hits. […] Arrow indicates the peptide pursued for binding validation. (FIG. 4E) EIC ([M+2], 948.91 m/z) traces corresponding to the product of the mTG reaction with linear B1.1 peptide and the synthetic lactam, disulfide peptide. (FIG. 4F) Surface Plasmon Resonance (SPR) analysis of the selected peptide (B1.1), the Met9Nle variant, and the linear variant. […] The selected B1.1 and the Met9Nle variant were analyzed at analyte concentrations of 7.5, 15, 30, 60, 120 nM. The linear variant was analyzed at analyte concentrations of 50, 100, 200, 400, 800 nM. […] (FIG. 4G) Individual SPR curves. Fitted curve and raw data are shown.
# Surface Plasmon Resonance (SPR) analysis. Binding kinetics between our selected peptide (and variants) and biotinylated B7-H3 (B7-H3b) were assessed through SPR analysis using a BIACORE 8K SPR system (GE Healthcare). The running buffer was 1×PBS pH7.5, 0.05% TWEEN® 20 and all analysis was carried out at 25° C. B7-H3b was loaded onto a NeutrAvidin SPR Chip (Series S Sensor Chip NA, 29407997, Cytiva) at a flow rate of […] to a surface density of 1000-1500 response units. Analyte was then injected over a series of five concentrations and quantified by BIACORE single-cycle kinetics method. For our selected peptide (B1.1) and the Met9Nle variant a range of 7.5, 15, 30, 60, 120 nM were run. For the linear variant concentrations of 50, 100, 200, 400, 800 nM were run. Binding sonograms were generated using a standard 1:1 binding kinetics model and kinetics constants determined using standard BIACORE evaluation software.
# B7-H3 [5] = assay: ka (M^-1s^-1)
# From the text: (§6) Table printed on a drawing sheet, FIG. 4F
# Head of the field: ka (M^-1s^-1)
# as §5, with “The patent's description of the figure: FIGS.” for “FIGS.”
# (§7) First copying reader's note: Brackets drawn on the SELECTED and MET9NLE sequences join C to C (above) and Q to K (below), marking a bicyclic peptide; LINEAR has no brackets.
# (§8) Where the first naming reader finds the target: passage: Binding affinities were assessed for each peptide by surface plasmon resonance (SPR) against biotinylated B7-H3.
# B7-H3 [6] = assay: kd (s^-1)
# From the text: as §6
# Head of the field: kd (s^-1)
# as §5, with “The patent's description of the figure: FIGS.” for “FIGS.”
# as §7, §8
# human and murine B7-H3 [7] = assay: KD (nM)
# Experimental: as §1
# Head of the field: KD (nM)
# as §2, §3, §4
binding affinity towards B7-H3 (biotinylated B7-H3),Compound,"subcellular localization (Rab5a, Rab7a, Lamp1 reporters) [1]",binding in validation assay (B7-H3 [2]),remaining at 24 h [3] [%],Ka (M^-1s^-1) (human and murine B7-H3 [4]),other results
–,"CC[C@H](C)[C@@H]1NC(=O)[C@@H](NC(C)=O)CSCc2cccc(c2)CSC[C@@H](C(=O)NCC(=O)O)NC(=O)[C@@H]2CCCN2C(=O)[C@H](CC(C)C)NC(=O)[C@H](Cc2ccccc2)NC(=O)[C@H](CCCNC(=N)N)NC(=O)C2CCCN2C(=O)[C@H]([C@@H](C)CC)NC(=O)[C@H](CCCNC(=N)N)NC(=O)[C@H]([C@@H](C)O)NC(=O)[C@H](Cc2c[nH]c3ccccc23)NC(=O)[C@H](C(C)C)NC1=O (stereo partly drawn) [JP3, N-terminal acetylated CIVWTRIPRFLPCG] (Ac-CIVWTRI[ξP]RFLPCG-OH; linker 1-13 via mXylylene)",Co-localization of JP3 and Rab5a,strong B7-H3 binders,~40,–,–
–,"CC[C@H](C)[C@@H]1NC(=O)[C@H](CC(=O)O)NC(=O)[C@H](CCCNC(=N)N)NC(=O)[C@H]([C@@H](C)CC)NC(=O)[C@H]([C@@H](C)O)NC(=O)[C@H](Cc2c[nH]c3ccccc23)NC(=O)[C@@H](NC(C)=O)CSCc2cccc(c2)CSC[C@@H](C(=O)NCC(=O)O)NC(=O)[C@H](CCCNC(=N)N)NC(=O)[C@H]([C@@H](C)O)NC(=O)CNC(=O)[C@H](CC(N)=O)NC1=O [JP5, N-terminal acetylated CWTIRDINGTRCG] (Ac-CWTIRDINGTRCG-OH; linker 1-12 via mXylylene; N-terminus and C-terminus assumed)",predominantly cell surface localization of JP5 was observed with some rare evidence of endosomal uptake,strong B7-H3 binders,80,1.25e^5 and 1.02e^5,–
similar,"CCCC[C@@H]1NC(=O)[C@H](CO)NC(=O)[C@H](Cc2c[nH]cn2)NC(=O)[C@@H]2CSSC[C@H](NC(=O)[C@H]([C@@H](C)O)NC(=O)[C@H](Cc3ccc(O)cc3)NC(=O)[C@H](Cc3ccccc3)NC1=O)C(=O)N[C@H](C(=O)N[C@@H](CO)C(=O)NCC(N)=O)CCCCNC(=O)CC[C@H](NC(=O)[C@H](CC(C)C)NC(=O)[C@H](C)NC(=O)[C@H](Cc1c[nH]c3ccccc13)NC(C)=O)C(=O)N[C@@H](CC(C)C)C(=O)N2 [Met9Nle variant, acWALQLCHSNleFYTCKSG] (Ac-WALELCHS[Nle]FYTCKSG-NH2; lactam 4-14; disulfide 6-13)",–,–,–,–,Kd (biotinylated B7-H3; read-out: binding affinity towards B7-H3): 46.9 nM; ka (M^-1s^-1) (B7-H3 [5]): 9.55e^5; kd (s^-1) (B7-H3 [6]): 4.48e^-2
–,acWALQLCHSNleFYTCKSGK(AZO)G [OXIDIZED B1.1 | 296],–,–,–,–,Kd (human and murine B7-H3 [7]): 161 nM
–,acWALQLCHSNleFYTCKSGK(AZO)G [REDUCED B1.1 | 294],–,–,–,7.444e^7,–
no detectable binding interaction,linear variant of B1.1: linear form of B1.1 without lactam and disulfide cyclization (WALQLCHSMFYTCKSG-NH2; cysteine pairing not given here),–,–,–,–,binding affinity towards B7-H3 (biotinylated B7-H3; listed as linear precursor peptide): did not bind
